Test results published in paper PMC9545474, “Anticancer Water‐Soluble Organoruthenium Complexes: Synthesis and Preclinical Evaluation” (Chembiochem, 2022).

Columns and labels:
[1] = tested on: A2780 subcutaneous tumour xenograft; assay: Efficacy in A2780 subcutaneous tumour xenograft model; assay type: in vivo, Female Balb/c immunodeficient nude mice; conditions: 6 at 50 mg/kg, 8 at 15 mg/kg, i.p.; for Maximum % weight loss / Median time to RTV2: days 0–4; for Growth delay: days 0–4, versus untreated
Description: Compounds: All compounds were provided in powdered form and stored in the −20 °C freezer. They were formulated just before use. […] The drugs were then administered within 10 minutes of initial dilution.
Animals: Female Balb/c immunodeficient nude mice aged 6–12 weeks were used (Envigo, Blackthorn, UK). Mice were kept in cages housed in isolation cabinets in an air‐conditioned room with regular alternating cycles of light and darkness. They received Teklad 2018 diet (Envigo, Blackthorn, UK) and water ad libitum. All animal procedures were carried out under a project licence issued by the UK Home Office and UK National Cancer Research Institute Guidelines for the Welfare of Animals were followed throughout.
S.c. xenograft tumours: A2780/WT and A2780/cis tumours were excised from a donor animal, placed in sterile physiological saline containing antibiotics and cut into small fragments of approximately 5 mm^3. Under brief general inhalation anaesthesia, fragments were implanted in the flank of each mouse using a trocar. Once the tumours could accurately be measured by callipers, the mice were allocated into groups (control or treated) by restricted randomisation to keep group mean tumour size variation to a minimum, with 3 animals set up per group.
Evaluation of efficacy in s.c. xenograft models: The compounds were prepared fresh on the days of treatment as described above and administered i. p. to mice on days 0–4 in a volume of 0.1 mL per 10 g of body weight. […] The negative control group was untreated.
The effects of therapy were assessed by frequent monitoring growth of the tumours and body weight. Two‐dimensional calliper measurements of the tumours were taken, and volumes calculated using the formula (a^2×b)/2, where a is the smaller and b the larger diameter of the tumour. Tumour volume was then normalised to the respective volume on day 0, and semi‐log plots of relative tumour volume (RTV) versus time were made. Mann‐Whitney U tests were performed to determine the statistical significance of any differences in growth rate (based on tumour volume doubling time, RTV2) between control and treated groups.

A2780 cells = assay: FITC annexin-V / PI apoptosis assay by flow cytometry; assay type: cell-based, human; conditions: A2780, 24 h, complexes 2×IC50, doxorubicin 0.5 µM
Source text: Annexin V‐FITC and propidium iodide (PI) have been used to distinguish between viable cells (Q1‐LL), early apoptotic cells (Q1‐LR), late apoptotic cells (Q1‐UR), and necrotic cells (Q1‐UL). […] Both complexes 6 and 8 induce apoptosis of A2780 cells and treatment with the complexes results in 99.6 % and 95.4 % of the cells in late apoptosis, respectively.
Figure 9 Flow cytometry analysis of A2780 cells exposed to complexes 6 or 8 at twice the IC50 concentration compared to a negative control. FITC reads annexin fluorescence and PE reads propidium iodide. Abbreviations: Q1‐UL=non‐viable cells; Q1‐UR=late‐stage apoptotic cells; Q1‐LR=early‐stage apoptotic cells and Q1‐LL=healthy cells.
FITC annexin‐V apoptosis assay: Flow cytometry analysis of apoptotic populations was carried out using the FITC Annexin V Apoptosis Detection Kit with PI (BioLegend®) according to manufacturer's instructions. Briefly, A2780 cells were seeded in 6‐well plates at a concentration of 1.0×10^6 cells per well and the plates were incubated for 24 h at 37 °C and a 5 % CO2 humidified atmosphere. […] Cells were then harvested using trypsin (without EDTA) and stained with PI/Annexin V‐FITC. After staining in the dark for 15 min at room temperature, cell pellets were analysed in a BD Accuri C6 Plus System flow cytometer and data was analysed using the BD Accuri C6 Plus software. These experiments were carried out in duplicate of triplicates in independent experiments; although only selected dot plots are shown, full numerical data and statistical analysis can be found in the Supporting Information.

[2] = Combined results, Average of two experiments

Molecule | Maximum % weight loss [1] | Median time to RTV2 [1] | Growth delay [1] | Early apoptosis (Q1-LR) (A2780 cells; [2]) | Late apoptosis (Q1-UR) (A2780 cells; [2]) | Necrosis (Q1-UL) (A2780 cells; [2]) | Viable cells (Q1-LL) (A2780 cells; [2]) | Early apoptosis (Q1-LR) (A2780 cells; Experiment 1, Average) | Late apoptosis (Q1-UR) (A2780 cells; Experiment 1, Average) | Necrosis (Q1-UL) (A2780 cells; Experiment 1, Average) | Viable cells (Q1-LL) (A2780 cells; Experiment 1, Average) | Early apoptosis (Q1-LR) (A2780 cells; Experiment 1, Rep 1) | Late apoptosis (Q1-UR) (A2780 cells; Experiment 1, Rep 1) | Necrosis (Q1-UL) (A2780 cells; Experiment 1, Rep 1) | Viable cells (Q1-LL) (A2780 cells; Experiment 1, Rep 1) | Early apoptosis (Q1-LR) (A2780 cells; Experiment 1, Rep 2) | Late apoptosis (Q1-UR) (A2780 cells; Experiment 1, Rep 2) | Necrosis (Q1-UL) (A2780 cells; Experiment 1, Rep 2) | Viable cells (Q1-LL) (A2780 cells; Experiment 1, Rep 2) | Early apoptosis (Q1-LR) (A2780 cells; Experiment 1, Rep 3) | also measured
(η^6‐p‐cymene)(TPPTS)Ru(Mnt) [Complex 6] | 0% | 2.0 days | 0.6 days | 0.1% | 99.8% | 0.0% | 0.2% | 0.1% | 99.6% | 0.0% | 0.2% | 0.1% | 99.6% | 0.0% | 0.2% | 0.1% | 99.6% | 0.0% | 0.2% | 0.2% | Late apoptosis (Q1-UR) (A2780 cells; Experiment 1, Rep 3): 99.5%; Necrosis (Q1-UL) (A2780 cells; Experiment 1, Rep 3): 0.0%; Viable cells (Q1-LL) (A2780 cells; Experiment 1, Rep 3): 0.3%; Early apoptosis (Q1-LR) (A2780 cells; Experiment 2, Average): 0.0%; Late apoptosis (Q1-UR) (A2780 cells; Experiment 2, Average): 99.9%; Necrosis (Q1-UL) (A2780 cells; Experiment 2, Average): 0.0%; Viable cells (Q1-LL) (A2780 cells; Experiment 2, Average): 0.1%; Early apoptosis (Q1-LR) (A2780 cells; Experiment 2, Rep 1): 0.0%; Late apoptosis (Q1-UR) (A2780 cells; Experiment 2, Rep 1): 99.9%; Necrosis (Q1-UL) (A2780 cells; Experiment 2, Rep 1): 0.0%; Viable cells (Q1-LL) (A2780 cells; Experiment 2, Rep 1): 0.1%; Early apoptosis (Q1-LR) (A2780 cells; Experiment 2, Rep 2): 0.0%; Late apoptosis (Q1-UR) (A2780 cells; Experiment 2, Rep 2): 99.9%; Necrosis (Q1-UL) (A2780 cells; Experiment 2, Rep 2): 0.0%; Viable cells (Q1-LL) (A2780 cells; Experiment 2, Rep 2): 0.0%; Early apoptosis (Q1-LR) (A2780 cells; Experiment 2, Rep 3): 0.0%; Late apoptosis (Q1-UR) (A2780 cells; Experiment 2, Rep 3): 99.9%; Necrosis (Q1-UL) (A2780 cells; Experiment 2, Rep 3): 0.0%; Viable cells (Q1-LL) (A2780 cells; Experiment 2, Rep 3): 0.1%
Cc1ccc(C(C)C)cc1.N#CC1=C(C#N)[S][Ru-]([P+](c2ccccc2)(c2ccccc2)c2ccccc2)[S]1 [Complex 8, (η^6‐p‐cymene)(PPh3)Ru(Mnt)] | 0% | 1.5 days | 0.1 days | 2.5% | 94.4% | 0.5% | 2.6% | 2.6% | 94.3% | 0.4% | 2.7% | 2.6% | 95.4% | 0.3% | 1.7% | 2.2% | 94.5% | 0.4% | 2.8% | 3.0% | Toxicity in xenograft study [1]: No toxicity was observed; Late apoptosis (Q1-UR) (A2780 cells; Experiment 1, Rep 3): 93.0%; Necrosis (Q1-UL) (A2780 cells; Experiment 1, Rep 3): 0.6%; Viable cells (Q1-LL) (A2780 cells; Experiment 1, Rep 3): 3.5%; Early apoptosis (Q1-LR) (A2780 cells; Experiment 2, Average): 2.4%; Late apoptosis (Q1-UR) (A2780 cells; Experiment 2, Average): 94.5%; Necrosis (Q1-UL) (A2780 cells; Experiment 2, Average): 0.6%; Viable cells (Q1-LL) (A2780 cells; Experiment 2, Average): 2.5%; Early apoptosis (Q1-LR) (A2780 cells; Experiment 2, Rep 1): 2.0%; Late apoptosis (Q1-UR) (A2780 cells; Experiment 2, Rep 1): 95.1%; Necrosis (Q1-UL) (A2780 cells; Experiment 2, Rep 1): 0.6%; Viable cells (Q1-LL) (A2780 cells; Experiment 2, Rep 1): 2.3%; Early apoptosis (Q1-LR) (A2780 cells; Experiment 2, Rep 2): 2.3%; Late apoptosis (Q1-UR) (A2780 cells; Experiment 2, Rep 2): 94.2%; Necrosis (Q1-UL) (A2780 cells; Experiment 2, Rep 2): 0.8%; Viable cells (Q1-LL) (A2780 cells; Experiment 2, Rep 2): 2.7%; Early apoptosis (Q1-LR) (A2780 cells; Experiment 2, Rep 3): 2.9%; Late apoptosis (Q1-UR) (A2780 cells; Experiment 2, Rep 3): 94.1%; Necrosis (Q1-UL) (A2780 cells; Experiment 2, Rep 3): 0.5%; Viable cells (Q1-LL) (A2780 cells; Experiment 2, Rep 3): 2.5%
